The term IC50 denotes the midpoint of a concentration-inhibition curve. For orientation: melting point means the temperature, or range, at which the solid turns liquid.

The values that follow come from paper PMC7504677, “Impact of N-Alkylamino Substituents on Serotonin Receptor (5-HTR) Affinity and Phosphodiesterase 10A (PDE10A) Inhibition of Isoindole-1,3-dione Derivatives” (Molecules, 2020).

One data set concerns the target T1, 5-HT2A receptor (Homo sapiens, UniProt P28223).
T1 construct: Cerep (protocol)
As to the kind of experiment: CEREP screening, inhibition of control binding. Conditions: CEREP Laboratories, read-out: percent of inhibition of the control binding for 5-HT2A.

Data set [1] has as its system CD-1 mice. As to the kind of experiment: spontaneous locomotor activity. The data set is classed as in vivo. Conditions: for spontaneous locomotor activity: mean ± S.E.M. The procedure:
The experiments were performed on male CD-1 mice (in the accredited animal facility at the Jagiellonian University Medical College, Krakow, Poland), and mice were kept in groups of ten in Makrolon type 3 cages (dimensions 26.5 × 15 × 42 cm). The animals were kept in an environmentally controlled room (ambient temperature 22 ± 2 °C; relative humidity 50–60%; 12:12 light:dark cycle, lights on at 8:00). They were allowed to acclimatize with the environment for one week before commencement of the experiments. Standard laboratory food (Ssniff M-Z) and filtered water were freely available. All the experimental procedures were approved by the I Local Ethics Commission at the Jagiellonian University in Krakow (Approval Nos.: 125/2017, 123/2015, and 158/2017).
All the experiments were conducted in the light phase between 09.00 and 14.00 h. Each experimental group consisted of 7–10 animals per treatment dose. The animals were used only once.
Locomotor activity was recorded with an Opto M3 multi-channel activity monitor (MultiDevice Software v.1.3, Columbus Instruments, Columbus, OH, USA). The CD-1 mice were individually placed in plastic cages (22 × 12 × 13 cm) immediately after drug administration, and then ambulation was counted during 1 h with data recording every 10 min. The cages were cleaned up with 70% ethanol after each mouse.
Locomotor activity was recorded according to the method described above.
All compounds were injected at a volume of 10 mL/kg. Control animals received a vehicle injection according to the same schedule.

A further data set addresses 5-HT7 receptor (Homo sapiens, UniProt P34969). As to the kind of experiment: radioligand binding assay, [3H]-LSD. The note with it: read-out: 5-HT7 1 µM ± SEM (% of control specific binding). The method, then: (§1) Briefly: binding experiments were conducted in 96-well microplates in a total final volume of 250 μL of appropriate buffers. Reaction mix included 50 μL solution of test compound, 50 μL of radioligand ([^3H]8-OH-DPAT for 5-HT1A, and [^3H]-LSD for 5-HT7, respectively) and 150 μL of diluted membranes (see description and Table S2 in Supporting Materials). Specific assay conditions for each receptor are described elsewhere. The radioactivity was measured in a MicroBeta2 scintillation counter (PerkinElmer, USA). Each compound was tested in the assay as duplicate samples at 1 µM final concentrations. Results were expressed as percent inhibition of specific binding.

A further data set addresses T2, D2 receptor (Homo sapiens, UniProt P14416).
T2 construct: Cerep (protocol)
The data set is described as follows: CEREP screening, inhibition of control binding. The note with it: CEREP Laboratories, read-out: percent of inhibition of the control binding for D2.

In data set [2] the test system is CD-1 mice. As to the kind of experiment: d-amphetamine-induced hyperlocomotor activity. The data set is classed as in vivo. The procedure:
The experiments were performed on male CD-1 mice (in the accredited animal facility at the Jagiellonian University Medical College, Krakow, Poland), and mice were kept in groups of ten in Makrolon type 3 cages (dimensions 26.5 × 15 × 42 cm). The animals were kept in an environmentally controlled room (ambient temperature 22 ± 2 °C; relative humidity 50–60%; 12:12 light:dark cycle, lights on at 8:00). They were allowed to acclimatize with the environment for one week before commencement of the experiments. Standard laboratory food (Ssniff M-Z) and filtered water were freely available. All the experimental procedures were approved by the I Local Ethics Commission at the Jagiellonian University in Krakow (Approval Nos.: 125/2017, 123/2015, and 158/2017). All the experiments were conducted in the light phase between 09.00 and 14.00 h. Each experimental group consisted of 7–10 animals per treatment dose. The animals were used only once. Locomotor activity was recorded with an Opto M3 multi-channel activity monitor (MultiDevice Software v.1.3, Columbus Instruments, Columbus, OH, USA). The CD-1 mice were individually placed in plastic cages (22 × 12 × 13 cm) immediately after drug administration, and then ambulation was counted during 1 h with data recording every 10 min. The cages were cleaned up with 70% ethanol after each mouse. […] All compounds were injected at a volume of 10 mL/kg. Control animals received a vehicle injection according to the same schedule.

Another data set concerns the target PDE10A (Homo sapiens, UniProt Q9Y233). The data set is described as follows: luminescence PDE inhibition assay (PDElight HTS cAMP phosphodiesterase assay kit). The data set is classed as biochemical. Conditions: for inhibition at 3 µM / inhibition at 10 µM: 1 h; for IC50: SEM of three independent experiments performed in duplicate. The procedure:
Test and reference compounds were dissolved in dimethyl sulfoxide (DMSO) at a concentration of 1 mM and further diluted in assay buffer in order to obtain the final concentration of compounds: 10 µM and 3 µM, respectively. All reactions were carried out at 37 °C in white, half-area 96-well plates (Perkin Elmer, Waltham, MA, USA). The inhibition of PDE 10A enzyme was measured using the PDElight HTS cAMP phosphodiesterase assay kit (Lonza) according to the manufacturer’s recommendations. 2.5 U of PDE 10A enzyme was preincubated either with DMSO (vehicle control) or compound for 20 min before incubation with the substrate, cAMP (final concentration 1.25 µM), for 1 h. Then, PDELight AMP Detection Reagent was added. After 10 min incubation, the luminescence was measured in a multifunction plate reader (POLARstar Omega, BMG Labtech, Ortenberg, Germany).

Data set [3] has as its system SH-SY5Y human neuroblastoma cell-line. As to the kind of experiment: MTT cytotoxicity assay. Format: cell-based. Conditions: SHSY-5Y cells, 24 h, 0.1–100 µM. The procedure: (§2) The HePG2 human liver cancer cell-line, (ATCC® 59195™) and the SH-SY5Y human neuroblastoma cell-line (ATCC® CRL-2266™) were used in the study. The cells were cultured in standard conditions (37 °C, 5% CO2), in EMEM (HepG2 and SH-SY5Y), supplemented with 10% fetal bovine serum (FBS) (Gibco, Thermo Fisher Scientific, Waltham, MA. USA) and antibiotics (Lonza, Köln, Germany).
(§3) The MTT assay was used to determine the cytotoxic effects of the analyzed compounds. Cells were seeded at a density of 2 × 10^4 in 96-well plates. Following overnight culture, cells were then treated with increasing concentrations of compound 18 (0.1–100 µM) and incubated for 24 h. Following cell exposure for 24 h, 10 µL MTT reagent (Sigma Aldrich) was added to each well and, after 3 h of incubation (37 °C, 5% CO2), the medium was aspirated and the formazan produced in the cells appeared as dark crystals in the bottom of the wells. Next, Crystal DMSO was added to each well. Then, the optical density (OD) of each well was determined at 570 nm on a plate-reader (Spectra iD3, Molecular Devices, San Jose, CA, USA). The number of metabolically active and living cells is directly proportional to the absorbance of the samples. The results are presented in Figure 5 as the percentage of control ± SEM. Doxorubicin was used as reference standard (cytotoxic agent).
Background: Tetrazolium assays rely on reduction of a dye to a coloured formazan, in cell work by metabolically active cells.

Data set [4] relates to HePG2 human liver cancer cell-line. The data set is described as follows: MTT cytotoxicity assay. Format: cell-based. The note with it: HepG2 cells, 24 h, 0.1–100 µM. The method, then: as §2, §3
In the next data set the target is T3, 5-HT1A receptor (Homo sapiens, UniProt P08908).
T3 sequence (P08908 1-422): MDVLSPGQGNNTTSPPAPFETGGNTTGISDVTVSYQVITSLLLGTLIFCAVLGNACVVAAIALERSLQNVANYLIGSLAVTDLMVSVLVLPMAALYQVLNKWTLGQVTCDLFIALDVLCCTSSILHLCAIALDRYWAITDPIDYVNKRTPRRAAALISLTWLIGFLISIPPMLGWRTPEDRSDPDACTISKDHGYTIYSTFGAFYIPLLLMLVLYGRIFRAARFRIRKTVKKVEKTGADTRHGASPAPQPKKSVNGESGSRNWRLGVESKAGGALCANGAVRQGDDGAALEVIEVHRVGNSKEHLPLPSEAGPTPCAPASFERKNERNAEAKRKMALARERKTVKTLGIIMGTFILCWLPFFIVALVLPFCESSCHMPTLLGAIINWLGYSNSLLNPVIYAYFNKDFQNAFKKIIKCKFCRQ
The data set is described as follows: radioligand binding assay, [3H]8-OH-DPAT. The note with it: read-out: 5-HT1A 1 µM ± SEM (% of control specific binding). The procedure:
as §1

The mark [5] stands for this setting: 60 mg/kg ip, 10 min of the test.
The mark [6] stands for this setting: 60 mg/kg ip, 20 min of the test.
Setting [7] is: 60 mg/kg ip, 30 min of the test.
The mark [8] stands for this setting: 60 mg/kg ip, 60 min of the test.
Where [9] appears, read: percentage of inhibition respective to vehicle control (DMSO), 3 µM.
[10] abbreviates: percentage of inhibition respective to vehicle control (DMSO), 10 µM.

Sequence of 5-HT7 receptor (P34969 whole entry): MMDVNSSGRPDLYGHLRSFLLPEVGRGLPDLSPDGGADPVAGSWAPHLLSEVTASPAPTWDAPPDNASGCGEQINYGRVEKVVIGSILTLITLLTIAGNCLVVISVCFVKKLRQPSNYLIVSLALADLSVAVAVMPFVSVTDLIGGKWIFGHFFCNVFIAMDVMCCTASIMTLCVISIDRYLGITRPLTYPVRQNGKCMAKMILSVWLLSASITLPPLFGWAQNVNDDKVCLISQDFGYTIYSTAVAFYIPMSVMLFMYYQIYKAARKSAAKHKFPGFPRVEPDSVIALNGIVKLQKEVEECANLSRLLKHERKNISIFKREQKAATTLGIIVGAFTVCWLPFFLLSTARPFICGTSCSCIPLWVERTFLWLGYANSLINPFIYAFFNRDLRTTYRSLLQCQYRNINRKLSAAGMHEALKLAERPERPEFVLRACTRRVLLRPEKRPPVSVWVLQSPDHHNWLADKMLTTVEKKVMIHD
Sequence of PDE10A (Q9Y233 whole entry, species assumed): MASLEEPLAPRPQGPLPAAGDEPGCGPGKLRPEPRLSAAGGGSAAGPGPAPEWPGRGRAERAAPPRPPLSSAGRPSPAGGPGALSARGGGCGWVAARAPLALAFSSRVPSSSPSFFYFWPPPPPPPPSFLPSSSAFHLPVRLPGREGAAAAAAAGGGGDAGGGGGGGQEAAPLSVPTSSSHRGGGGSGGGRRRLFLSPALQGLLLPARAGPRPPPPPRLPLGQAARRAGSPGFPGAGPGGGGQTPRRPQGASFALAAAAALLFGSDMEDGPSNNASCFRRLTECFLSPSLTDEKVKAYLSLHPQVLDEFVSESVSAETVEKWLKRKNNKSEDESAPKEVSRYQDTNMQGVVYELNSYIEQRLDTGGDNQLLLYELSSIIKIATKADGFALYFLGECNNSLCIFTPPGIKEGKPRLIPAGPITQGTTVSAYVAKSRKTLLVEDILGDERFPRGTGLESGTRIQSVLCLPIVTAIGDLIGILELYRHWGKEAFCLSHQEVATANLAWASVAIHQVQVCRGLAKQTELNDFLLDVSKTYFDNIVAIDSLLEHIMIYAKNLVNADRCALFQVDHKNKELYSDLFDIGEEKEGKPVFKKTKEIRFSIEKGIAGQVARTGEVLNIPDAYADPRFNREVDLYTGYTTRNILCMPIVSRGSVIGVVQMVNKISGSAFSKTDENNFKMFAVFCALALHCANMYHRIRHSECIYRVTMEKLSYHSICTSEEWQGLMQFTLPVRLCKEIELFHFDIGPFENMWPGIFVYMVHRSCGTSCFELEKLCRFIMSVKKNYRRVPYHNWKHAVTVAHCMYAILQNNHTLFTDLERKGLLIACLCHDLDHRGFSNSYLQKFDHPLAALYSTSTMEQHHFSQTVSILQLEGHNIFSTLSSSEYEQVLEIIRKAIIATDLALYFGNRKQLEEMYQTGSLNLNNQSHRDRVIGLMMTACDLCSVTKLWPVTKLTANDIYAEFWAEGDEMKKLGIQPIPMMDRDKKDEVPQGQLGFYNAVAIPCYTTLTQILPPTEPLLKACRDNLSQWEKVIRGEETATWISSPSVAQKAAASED
T2 sequence (P14416 whole entry): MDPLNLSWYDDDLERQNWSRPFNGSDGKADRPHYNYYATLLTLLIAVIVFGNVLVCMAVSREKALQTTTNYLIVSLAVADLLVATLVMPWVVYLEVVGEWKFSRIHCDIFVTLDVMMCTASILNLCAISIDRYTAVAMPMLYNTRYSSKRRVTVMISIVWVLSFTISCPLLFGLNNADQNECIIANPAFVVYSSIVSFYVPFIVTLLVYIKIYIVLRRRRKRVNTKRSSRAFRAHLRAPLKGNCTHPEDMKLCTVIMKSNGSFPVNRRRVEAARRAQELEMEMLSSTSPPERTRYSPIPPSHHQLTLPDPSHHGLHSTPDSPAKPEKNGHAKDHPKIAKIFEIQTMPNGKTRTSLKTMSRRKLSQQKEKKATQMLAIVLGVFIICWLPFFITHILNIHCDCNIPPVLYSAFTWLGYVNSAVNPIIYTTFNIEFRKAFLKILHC
T1 sequence (P28223 whole entry): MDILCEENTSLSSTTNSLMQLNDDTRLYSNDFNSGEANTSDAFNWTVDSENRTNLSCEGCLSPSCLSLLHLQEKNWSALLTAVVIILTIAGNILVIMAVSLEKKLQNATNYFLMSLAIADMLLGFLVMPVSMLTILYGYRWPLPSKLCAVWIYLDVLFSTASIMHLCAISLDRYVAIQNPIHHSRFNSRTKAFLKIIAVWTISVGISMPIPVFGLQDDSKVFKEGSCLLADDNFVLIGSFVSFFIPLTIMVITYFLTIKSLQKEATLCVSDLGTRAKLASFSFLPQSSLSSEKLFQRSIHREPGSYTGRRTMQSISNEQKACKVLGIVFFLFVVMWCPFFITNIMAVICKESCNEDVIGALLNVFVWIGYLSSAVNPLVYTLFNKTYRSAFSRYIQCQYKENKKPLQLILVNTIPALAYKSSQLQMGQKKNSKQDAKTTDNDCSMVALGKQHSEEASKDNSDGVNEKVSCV

For the compound `COc1cccc2c1C(=O)N(CCCCc1nc3ccccc3[nH]1)C2=O` [Compound 18, 2-[4-(1H-Benzimidazol-2-yl)butyl]-4-methoxy-1H-isoindole-1,3(2H)-dione], the melting point lay within 69 to 70 °C. Further, on 5-HT2A receptor, the inhibition at 1 µM was 8.8%. The “effect on spontaneous locomotor activity” value in the data set on CD-1 mice [1] (60 mg/kg) is “locomotor-suppressing effects were observed”. The compound further yielded a spontaneous locomotor activity with CD-1 mice [1] (setting [5]) of 176.2. Also, in the data set on CD-1 mice [1] (setting [6]), the spontaneous locomotor activity is on record as 285.0. In the data set with CD-1 mice [1] (setting [7]), this compound returned a spontaneous locomotor activity of 659.6. This compound also returned a spontaneous locomotor activity in the data set on CD-1 mice [1] (setting [8]) of 1875.4. Further, the inhibition at 1 µM on 5-HT7 receptor is 3 ± 1%. Besides, the inhibition at 1 µM at D2 receptor turned out to be 0%. In addition, the “effect on AMPH-induced hyperactivity” value with CD-1 mice [2] (60 mg/kg ip) is listed as “decreased AMPH-induced hyperactivity, but only for the first 10 min after injection”. Also, the “effect on AMPH-induced hyperactivity” value in the data set with CD-1 mice [2] (lower doses (data not shown)) was “did not change the stimulating effect of AMPH”. For the same compound, at PDE10A (setting [9]), the inhibition at 3 µM is 79%. This compound also came in with an inhibition at 10 µM on PDE10A (setting [10]) of 92%. At PDE10A, this compound showed an IC50 of 0.886 ± 0.017 µM. Moreover, the “cell viability (MTT)” value in data set [3] was “Decreasing cell viability (HepG2/SHSY-5Y) is observed only at higher concentrations”. Also, the “cell viability (MTT)” value in data set [4] is listed as “Decreasing cell viability (HepG2/SHSY-5Y) is observed only at higher concentrations”. Further, the inhibition at 1 µM at 5-HT1A receptor is 28 ± 3%.

Turning to `O=C1c2ccccc2C(=O)N1CCCc1nc2ccccc2[nH]1` [Compound 21, 2-[3-(1H-Benzimidazol-2-yl)propyl]-1H-isoindole-1,3(2H)-dione], the melting point was in the range of 190 to 191 °C. Besides, the inhibition at 1 µM at 5-HT7 receptor is 14 ± 2%. On PDE10A (setting [9]), this compound returned an inhibition at 3 µM of 16%. This compound had an inhibition at 10 µM on PDE10A (setting [10]) of 45%. The inhibition at 1 µM at 5-HT1A receptor was 27 ± 2%.

For the compound `O=C1c2ccccc2C(=O)N1CCCCc1nc2ccccc2[nH]1` [Compound 22, 2-[4-(1H-Benzimidazol-2-yl)butyl]-1H-isoindole-1,3(2H)-dione], the melting point was 179 to 180 °C. Also, the inhibition at 1 µM at 5-HT7 receptor stood at 15 ± 2%. At PDE10A (setting [9]), this compound registered an inhibition at 3 µM of 47%. The compound further came in with an inhibition at 10 µM at PDE10A (setting [10]) of 73%. The compound also yielded an IC50 against PDE10A of 5.65 ± 0.495 µM. Also, on 5-HT1A receptor, the inhibition at 1 µM is 20 ± 3%.

Compound `O=C1c2ccccc2C(=O)N1CCCCCc1nc2ccccc2[nH]1` [Compound 23, 2-[5-(1H-Benzimidazol-2-yl)pentyl]-1H-isoindole-1,3(2H)-dione] displayed a melting point of 168 to 169 °C. Moreover, the inhibition at 1 µM on 5-HT7 receptor was 34 ± 2%. Moreover, at PDE10A (setting [9]), the inhibition at 3 µM was 26%. At PDE10A (setting [10]), this compound gave an inhibition at 10 µM of 58%. Moreover, on 5-HT1A receptor, the inhibition at 1 µM amounted to 48 ± 3%.

As to `COc1ccc(Cc2nccc3cc(OC)c(OC)cc23)cc1OC` [Papaverine, papaverine], the spontaneous locomotor activity in the data set on CD-1 mice [1] (40 mg/kg ip, 10 min of the test) turned out to be 43.1; with CD-1 mice [1] (40 mg/kg ip, 20 min of the test), 170.2; in the data set with CD-1 mice [1] (40 mg/kg ip, 30 min of the test), 571.9; with CD-1 mice [1] (40 mg/kg ip, 60 min of the test), 2260.8; with CD-1 mice [1] (setting [5]) it was 7.1; in the data set with CD-1 mice [1] (setting [6]), 24.6. Besides, the spontaneous locomotor activity stood at 47.5 in the data set on CD-1 mice [1] (setting [7]) and 200.4 in the data set with CD-1 mice [1] (setting [8]). The “effect on spontaneous locomotor activity” value in the data set on CD-1 mice [1] (40 and 60 mg/kg) is recorded as “locomotor-suppressing effects were observed”. The “effect on AMPH-induced hyperactivity” value in the data set on CD-1 mice [2] (40 and 60 mg/kg ip) is listed as “dose-dependently antagonized this response”; in the data set with CD-1 mice [2] (lower doses (data not shown)) it was “did not change the stimulating effect of AMPH”. Further, the “PDE10A [%] 3 µM” value on PDE10A (setting [9]) was 54%. For the same compound, the “PDE10A [%] 10 µM” value at PDE10A (setting [10]) turned out to be 75%.

On to `COc1cccc2c1C(=O)c1c(O)c3c(c(O)c1C2=O)C[C@@](O)(C(=O)CO)C[C@@H]3O[C@H]1C[C@H](N)[C@H](O)[C@H](C)O1` [doxorubicin, reference compound], for which the “cell viability (MTT)” value in data set [3] and in [4] was “significantly decreased cell viability already at much lower concentrations” throughout.
